Measured values taken from patent US20210052741A1, “GENE THERAPY METHODS AND COMPOSITIONS USING AUXOTROPHIC REGULATABLE CELLS” (AUXOLYTIC LTD, priority 2018, published 2021).
Several values for one entry are separate records, joined by “and”; a condition that tells them apart may be missing. Equal entries are not always repeated.

How the values were obtained:
Type in all cases: cell-based, human
[1] = tested on: UMPS^KO/KO T cells mixed with wild-type T cells; test: 5-FOA selection in mixed T cell population
Source text: To evaluate the possibility to select for UMPS^KO/KO cells with 5-FOA, the sorted cells were mixed with wild-type cells, which were labeled with different tracking dyes, and cultured in the presence or absence of 5-FOA. In part of the samples, 5-FOA was only added on the first day (Day 0) while in another group it was supplemented daily. Table 30 and FIG. 7C show the percent (%) of the UMPS-KO T cells (labelled with eFluor670) over time when culturing with or without 5-FOA.
In fact, FACS analysis of a culture of a mixed population of UMPS knockout and wild-type T cells with 5-FOA. UMPS-KO T cells were labeled with eFluor670, and wild-type cells were labeled with carboxyfluorescein succinimidyl ester (CFSE). […] On Day 0 in the control group not treated with 5-FOA, 47.7% of the cells were UMPS-KO T cells, and 52.1% were wild-type cells. On Day 3 in the group with 5-FOA supplemented daily, 74.0% of the cells were UMPS-KO T cells, while 25.8% were wild-type cells. On Day 3 in the control group not treated with 5-FOA, 43.1% of the cells were UMPS-KO T cells, and 56.4% were wild-type cells.

[2] = tested on: UMPS^KO/KO/GFP^+ K562 cells mixed with UMPS^WT/WT K562 cells; test: 5-FOA resistance in mixed K562 culture; settings: for Percentages of GFP+ cells, Day 1 / Percentages of GFP+ cells, Day 2 / Percentages of GFP+ cells, Day 3 / Percentages of GFP+ cells, Day 4 / Percentages of GFP+ cells, Day 6 / Percentages of GFP+ cells, Day 8: with Uridine
Description: To determine the resistance of UMP S knockout cells to 5-FOA the purified uMPS^KO/KO/GFP^+ K562 cells were mixed at an equal ratio with UMPS^wT/WT/GFP-negative K562 cells. The cells were cultured in the presence of Uridine and different concentrations of 5-FOA (FIG. 6F).

UMPS edited T cells = test: TIDE analysis of UMPS InDels in mixed UMPS edited population
Description: Sanger sequencing of the UMPS locus was performed using UMPS-O-1 and UMPS-O-2, with the region amplified using PHUSION™ Hot Start Flex 2x Master Mix (New England Biolabs, Inc.). Sanger sequencing traces were analyzed by TIDE analysis (see, Brinkman et al, 2014, Nucleic Acids Res. 42(22):e168), which is hereby incorporated by reference in its entirety) to identify insertions and deletions (InDels) after editing. InDel quantification was performed on the sequences using the TIDE online tool (www.deskgen.com/landing/tide.html) (See, M. Sadelain, N. Engl. J. Med. 365, 1735-7 (2011), which is hereby incorporated by reference in its entirety.
T Cells were electroporated and edited as in Example 2 and allowed to recover for a 4-day period in medium with serum, uridine, and UMP. On day 4, cells were shifted to UMP, uridine, or uracil source media. […]
To confirm the results on the genomic level, genomic DNA was harvested at the end of the experiment and InDels were quantified (FIG. 5D-FIG. 5E). FIG. 5D compares the frequency of InDels in different culture conditions for cells not exposed to 5-FOA.

WT T cells = test: Auxotrophy assay in sorted T cells; settings: for Viable cells per ml: Anti-CD3/-CD28 beads
Description: (§1) These T cells were also subjected to an auxotrophy assay and the possibility to select these cells with 5-FOA was tested. […] Higher Uridine concentrations led to higher proliferation rates. Auxotrophic growth of UMPS KO or wild-type (WT) T cells is shown in FIG. 7B and Table 28.

UMPS KO T cells = test: Auxotrophy assay in sorted T cells; settings: for Relative viability on Day 4 (%) / Viable cells per ml: UMPS KO
Description: as §1

Mock T cells = test: Uracil auxotrophy growth assay after 5-FOA selection; settings: after 4 days 5-FOA selection, 4 days in supplemented media, without serum
Description: To assay whether or not the cells selected for by 5-FOA treatment were uracil auxotrophs, mock or UMPS targeted T cells were exposed to 5-FOA as shown in Example 4. Following 4 days of 5-FOA selection, the population of cells was split into an uracil containing media (UMP, uridine or both) and an uracil deficient media. A growth assay was subsequently performed by cell counting after following 4 days incubation in test media (Day 8) (FIG. 4A). In all cases, cell growth in the mock targeted cell cultures was negligible and independent of uracil source supplementation—indicating successful killing of non-UMPS targeted cells during the 5-FOA selection step (FIG. 4B-FIG. 4D).

[3] = cells not exposed to 5-FOA, end of experiment, metabolite 250 μg/ml

`O=C(O)c1[nH]c(=O)[nH]c(=O)c1F` [5-FOA, 5-fluoroorotic acid] was tested, and the “Percent of UMPS^KO/KO cells in mixed cell population, Day 0” value ([1]; 5-FOA Day 0 only) was 43.7% and 43.2%, the “Percent of UMPS^KO/KO cells in mixed cell population, Day 1” value ([1]; 5-FOA Day 0 only) was 59.2% and 55.6% and 50.8% and the “Percent of UMPS^KO/KO cells in mixed cell population, Day 3” value ([1]; 5-FOA Day 0 only) was 67.2% and 68.6% and 67.8%. For the same molecule, the “Percent of UMPS^KO/KO cells in mixed cell population, Day 0” value ([1]; 5-FOA daily) was 43.2%, the “Percent of UMPS^KO/KO cells in mixed cell population, Day 1” value ([1]; 5-FOA daily) was 58.5% and 55.4% and 54.5% and the “Percent of UMPS^KO/KO cells in mixed cell population, Day 3” value ([1]; 5-FOA daily) was 70.7% and 69.2%. For the same molecule, the “percent wild-type cells in mixed population, Day 0” value ([1]; 5-FOA only on the first day (Day 0), FACS) was 56.0%, the “percent wild-type cells in mixed population, Day 3” value ([1]; 5-FOA supplemented daily, FACS) was 25.8% and the “percent of UMPS-KO T cells, treated vs untreated group” value ([1]; unpaired t test) was “significant increase in the percent of UMPS-KO T cells”. For the same molecule, the “Number of GFP + cells per μl, Day 1” value ([2]; 10 ug/ml 5-FOA) was 87013.04 cells per μl, the “Number of GFP + cells per μl, Day 2” value ([2]; 10 ug/ml 5-FOA) was 163245.74 cells per μl and the “Number of GFP + cells per μl, Day 4” value ([2]; 10 ug/ml 5-FOA) was 569281.05 cells per μl. For the same molecule, the “Number of GFP + cells per μl, Day 6” value ([2]; 10 ug/ml 5-FOA) was 550780.31 cells per μl, the “Number of GFP + cells per μl, Day 8” value ([2]; 10 ug/ml 5-FOA) was 719624.13 cells per μl and the “Percentages of GFP+ cells, Day 1” value ([2]; 10 ug/ml 5-FOA) was 45.4% and 48.5%. The “Percentages of GFP+ cells, Day 2” value ([2]; 10 ug/ml 5-FOA) was 54.7% and 56.8%, the “Percentages of GFP+ cells, Day 3” value ([2]; 10 ug/ml 5-FOA) was 65.6% and 64.0% and the “Percentages of GFP+ cells, Day 4” value ([2]; 10 ug/ml 5-FOA) was 64.8% and 69.7%. The “Percentages of GFP+ cells, Day 6” value ([2]; 10 ug/ml 5-FOA) was 79.1% and 76.5%, the “Percentages of GFP+ cells, Day 8” value ([2]; 10 ug/ml 5-FOA) was 85.0% and 79.8% and the “Number of GFP + cells per μl, Day 1” value ([2]; 100 ug/ml 5-FOA) was 115272.35 cells per μl. For the same molecule, the “Number of GFP + cells per μl, Day 2” value ([2]; 100 ug/ml 5-FOA) was 106377.73 cells per μl, the “Number of GFP + cells per μl, Day 4” value ([2]; 100 ug/ml 5-FOA) was 376993.53 cells per μl and the “Number of GFP + cells per μl, Day 6” value ([2]; 100 ug/ml 5-FOA) was 501940.62 cells per μl. The “Number of GFP + cells per μl, Day 8” value ([2]; 100 ug/ml 5-FOA) was 693093.53 cells per μl, the “Percentages of GFP+ cells, Day 1” value ([2]; 100 ug/ml 5-FOA) was 52.6% and 48.9% and the “Percentages of GFP+ cells, Day 2” value ([2]; 100 ug/ml 5-FOA) was 67.1% and 64.2%. The “Percentages of GFP+ cells, Day 3” value ([2]; 100 ug/ml 5-FOA) was 79.5% and 71.4%, the “Percentages of GFP+ cells, Day 4” value ([2]; 100 ug/ml 5-FOA) was 85.2% and 74.4% and the “Percentages of GFP+ cells, Day 6” value ([2]; 100 ug/ml 5-FOA) was 92.1% and 86.2%. For the same molecule, the “Percentages of GFP+ cells, Day 8” value ([2]; 100 ug/ml 5-FOA) was 92.8% and 82.8%, the “Number of GFP + cells per μl, Day 1” value ([2]; 1000 ug/ml 5-FOA) was 75925.72 cells per μl and the “Number of GFP + cells per μl, Day 2” value ([2]; 1000 ug/ml 5-FOA) was 79080.77 cells per μl. The “Number of GFP + cells per μl, Day 4” value ([2]; 1000 ug/ml 5-FOA) was 151010.55 cells per μl, the “Number of GFP + cells per μl, Day 6” value ([2]; 1000 ug/ml 5-FOA) was 217794.10 cells per μl and the “Number of GFP + cells per μl, Day 8” value ([2]; 1000 ug/ml 5-FOA) was 339282.35 cells per μl. For the same molecule, the “Percentages of GFP+ cells, Day 1” value ([2]; 1000 ug/ml 5-FOA) was 51.9% and 49.4%, the “Percentages of GFP+ cells, Day 2” value ([2]; 1000 ug/ml 5-FOA) was 65.0% and 58.9% and the “Percentages of GFP+ cells, Day 3” value ([2]; 1000 ug/ml 5-FOA) was 72.9% and 66.9%. The “Percentages of GFP+ cells, Day 4” value ([2]; 1000 ug/ml 5-FOA) was 82.0% and 77.7%, the “Percentages of GFP+ cells, Day 6” value ([2]; 1000 ug/ml 5-FOA) was 92.6% and 90.5% and the “Percentages of GFP+ cells, Day 8” value ([2]; 1000 ug/ml 5-FOA) was 90.1% and 75.7%. For the same molecule, the “proliferation of UMPS knockout cells in 5-FOA” value ([2]; 10 and 100 μg/ml 5-FOA) was “proliferated well”, the “fraction of UMPS^KO/KO cells” value ([2]; all 5-FOA concentrations used) was “increased over time” and the “cell growth of UMPS knockout cells in 5-FOA” value ([2]; highest concentration (1000 ug/ml)) was “slowed their cell growth down”.
With `O=c1ccn([C@@H]2O[C@H](CO)[C@@H](O)[C@H]2O)c(=O)[nH]1` [Uridine] the “Alleles with frameshift InDels, Percent of alleles (without 5-FOA)” value (UMPS edited T cells; TIDE, day 8, metabolite 250 μg/ml) was 52.5%, the “Alleles with InDels, Percent of alleles (without 5-FOA)” value (UMPS edited T cells; TIDE, metabolite 250 μg/ml) was 77.0% and the “frameshift InDel frequency, Percent” value (UMPS edited T cells; [3]) was 52.5%. For the same molecule, the “overall InDel frequency, Percent (%)” value (UMPS edited T cells; [3]) was 77.0%, the “Predicted viable cell counts, Cells with In-frame InDel” value (UMPS edited T cells; day 8, metabolite 250 μg/ml) was 777000 and the “Predicted viable cell counts, Cells with frameshift InDel” value (UMPS edited T cells; day 8, metabolite 250 μg/ml) was 1660000. For the same molecule, the “Predicted viable cell counts, Cells without InDel” value (UMPS edited T cells; day 8, metabolite 250 μg/ml) was 729100, the “Relative viability of the cell population on Day 4” value (WT T cells; 2.5 μg/ml Uridine) was 84.64 and 82.19 and 80.45 and the “Viable cells per ml” value (WT T cells; 2.5 μg/ml uridine) was 486192 cells per ml and 362626 cells per ml and 364194 cells per ml. The “Relative viability of the cell population on Day 4” value (WT T cells; 25 μg/ml Uridine) was 83.91 and 83.40 and 79.66, the “Viable cells per ml” value (WT T cells; 25 μg/ml uridine) was 384503 cells per ml and 410116 cells per ml and 338547 cells per ml and the “Relative viability of the cell population on Day 4” value (WT T cells; 250 μg/ml Uridine) was 86.05 and 86.97 and 87.62. For the same molecule, the “Viable cells per ml” value (WT T cells; 250 μg/ml uridine) was 609575 cells per ml and 412493 cells per ml and 468354 cells per ml, the proliferation (UMPS KO T cells; Anti-CD3/-CD28 beads, different Uridine concentrations) was “proliferated only in the presence of Uridine” and the “Relative viability on Day 4 (%)” value (UMPS KO T cells; 2.5 μg/ml Uridine) was 78.78 and 79.28 and 79.74. The “Viable cells per ml” value (UMPS KO T cells; 2.5 μg/ml uridine, Anti-CD3/-CD28 beads) was 226596 cells per ml and 217594 cells per ml and 224448 cells per ml, the “Relative viability on Day 4 (%)” value (UMPS KO T cells; 25 μg/ml Uridine) was 82.16 and 81.57 and 83.09 and the “Viable cells per ml” value (UMPS KO T cells; 25 μg/ml uridine, Anti-CD3/-CD28 beads) was 282368 cells per ml and 268684 cells per ml and 304864 cells per ml. For the same molecule, the “Relative viability on Day 4 (%)” value (UMPS KO T cells; 250 μg/ml Uridine) was 85.66 and 85.29 and 84.38, the “Viable cells per ml” value (UMPS KO T cells; 250 μg/ml uridine, Anti-CD3/-CD28 beads) was 319120 cells per ml and 345862 cells per ml and 348022 cells per ml and the “Cells counts on Day 8” value (Mock T cells) was 1249 and 687.
